From patent publication US8404672B2, “Substituted heterocyclic compounds” (Bristol-Meyers Squibb Company, priority 2009, dated 2013)
Where a name gives a salt, the structure may show the parent alone.

Key:
[1] = target: T1, S1P1 (membranes from S1P1/CHO cells) (Homo sapiens, UniProt P21453); assay: Method A: Receptor [35S] GTPγS Binding Assay, S1P1; assay type: biochemical; details: for GTPγS S1P3/S1P1 (Method A): ratio of GTPγS S1P3 EC50 to GTPγS S1P1 EC50, Method A; for EC50: Method A, S1P1/CHO membranes
T1 construct: expressed in transfected cells; host or cells: S1P1/CHO cells
Procedure: (§1) Method A: Receptor [35S] GTPγS Binding Assays
(§2) Compounds were loaded in a 384 Falcon v-bottom plate (0.5 μl/well in a 3-fold dilution). Membranes prepared from S1P1/CHO cells or EDG3-Gal5-bla HEK293T cells were added to the compound plate (40 μl/well, final protein 3 μg/well) with MULTIDROP®. [^35S]GTP (1250 Ci/mmol, Perkin Elmer) was diluted in assay buffer: 20 mM HEPES, pH 7.5, 10 mM MgCl2, 150 mM NaCl, 1 mM EGTA, 1 mM DTT, 10 μM GDP, 0.1% fatty acid free BSA, and 10 μg/ml Saponin to 0.4 nM. 40 μl of the [^35S] GTP solution was added to the compound plate with a final concentration of 0.2 nM. The reaction was kept at room temperature for 45 min. At the end of incubation, all the mixtures in the compound plate were transferred to a 384 well FB filter plates via GPCR robot system. The filter plate was washed with water 4 times by using the modified manifold Embla plate washer and dried at 60° C. for 45 min. 30 μA of MicroScint 20 scintillation fluid was added to each well for counting at Packard TOPCOUNT®. EC50 is defined as the agonist concentration that corresponds to 50% of the Ymax (maximal response) obtained for each individual compound tested.
(§3) Compounds of the present invention and Comparative Compound A were tested in the Receptor [35S] GTPγS Binding Assays (Method A) and Receptor [35S] In some instances, the value is an average of multiple experiments where N is the number of experiments conducted that provided satisfactory dose response curves. When more than one batch of an example was tested, the value presented is from a batch which allowed a comparison of GTPγS S1P1 and GTPγS S1P3 in which the most number of experiments were performed. Preferably, the same batch was examined in Method A and Method B. Data was not averaged across different batches of an example compound.

[2] = target: T2, S1P1 (membranes from S1P1 transfected CHO cells) (Homo sapiens, UniProt P21453); assay: Method B: Receptor [35S] GTPγS SPA Binding Assay, S1P1; assay type: biochemical; details: for GTPγS S1P3/S1P1 (Method B): ratio of GTPγS S1P3 EC50 to GTPγS S1P1 EC50, Method B; for EC50: Method B SPA, S1P1 transfected CHO membranes
T2 construct: expressed in transfected cells; host or cells: CHO cells
Procedure: (§4) Method B: Receptor [35S] GTPγS SPA Binding Assays
(§5) Membranes prepared from S1P1 or S1P3 transfected CHO cells ([…]) were incubated in 96-well white plates (CORNING® 3693) with test compounds diluted in DMSO, in 50 μl of reaction mixture containing 7.5 μl WGA-PVT beads (20 mg/ml), and 5 μM GDP, 20 mM HEPES pH 7.4, 100 mM NaCl, 1 mM EDTA, 5 mM MgCl2, 10 μg/ml saponin, 0.1% BSA, and 1 μM leupeptin. The assay was initiated with the addition of […] of 0.2 nM [^35S]-GTPγS (1250 Ci/mmol; NEN) in assay buffer. After 90 min incubation at room temperature, spin the plate at 1000 rpm for 5 min. The bound radionuclides were measured at TOPCOUNT®, expressed as % response relative to S1P (1 μM) activation. Data was analyzed using the four parameter logistic equation in Excel. The four parameters in the equation, Y=A+((B−A)/(1+((EC50/X)^D))), are described as following: A is the Y value (agonist activity) at the bottom plateau; B is the Y value at the top plateau; EC50 is the X value (agonist concentration) when the response is halfway between bottom and top; D is Hill coefficient. Curves were not generated for compounds having Ymax values were below 50%.
as §3

human S1P1 = target: T3, human S1P1 (Homo sapiens, UniProt P21453); assay: S1P1 Binding Assay (33P-S1P radioligand competition, CHO cell membranes); details: membranes from CHO cells expressing human S1P1; 0.03 nM 33P-S1P; 60 min room temperature
T3 construct: expressed in transfected cells; host or cells: CHO cells
Procedure: Membranes were prepared from CHO cells expressing human S1P1. Cells were dissociated in buffer containing 20 mM HEPES, pH 7.5, 50 mM NaCl, 2 mM EDTA and Protease Inhibitor cocktail (Roche), and disrupted on ice using the Polytron homogenizer. The homogenate was centrifuged at 20,000 rpm (48,000 g) and the supernatant was discarded. The membrane pellets were resuspended in buffer containing 50 mM HEPES, pH 7.5, 100 mM NaCl, 1 mM MgCl2, 2 mM EDTA and stored in aliquots at −80° C. after protein concentration determination.
Membranes ([…]) and 0.03 nM final concentration of ^33P—S1P ligand (1 mCi/ml, American Radiolabeled Chemicals) were added to the compound plates. Binding was performed for 60 min at room temperature, terminated by collecting the membranes onto GF/B filter plates, and radioactivity was measured by TOPCOUNT®. The competition data of the test compounds over a range of concentrations was plotted as percentage inhibition of radioligand specific binding. The IC50 is defined as the concentration of competing ligand needed to reduce specific binding by 50%.
Compounds of the present invention and Comparative Compound A were tested in the S1P1 binding assay described hereinabove and the results rounded to two digits, shown in Table A were obtained. In some instances, the value is an average of multiple experiments where N is the number of experiments conducted that provided satisfactory dose response curves. When more than one batch of an example was tested, the value presented is from the batch which allowed a comparison of GTPγS S1P1 and GTPγS S1P3 in Method A (Data shown in Table B). Data was not averaged across different batches of an example compound.

[3] = target: T4, S1P3 (membranes from S1P3 transfected CHO cells) (Homo sapiens, UniProt Q99500); assay: Method B: Receptor [35S] GTPγS SPA Binding Assay, S1P3; assay type: biochemical
T4 construct: expressed in transfected cells; host or cells: CHO cells
Procedure: as §4, §5, §3

[4] = target: T5, S1P3 (membranes from EDG3-Gal5-bla HEK293T cells) (Homo sapiens, UniProt Q99500); assay: Method A: Receptor [35S] GTPγS Binding Assay, S1P3; assay type: biochemical
T5 construct: expressed in transfected cells; host or cells: EDG3-Gal5-bla HEK293T cells
Procedure: as §1, §2, §3

T1 sequence (P21453 whole entry): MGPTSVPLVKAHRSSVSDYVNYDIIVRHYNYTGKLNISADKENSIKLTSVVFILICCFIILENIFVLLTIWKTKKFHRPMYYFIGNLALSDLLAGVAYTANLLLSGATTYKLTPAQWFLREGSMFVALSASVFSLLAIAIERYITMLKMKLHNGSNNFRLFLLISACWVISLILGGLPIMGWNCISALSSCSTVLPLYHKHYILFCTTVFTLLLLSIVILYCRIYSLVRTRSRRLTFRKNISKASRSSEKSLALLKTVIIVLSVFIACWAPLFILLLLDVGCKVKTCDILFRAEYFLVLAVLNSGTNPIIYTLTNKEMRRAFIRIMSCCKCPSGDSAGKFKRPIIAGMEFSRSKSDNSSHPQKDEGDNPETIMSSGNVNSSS
T2 sequence (P21453 whole entry): as above
T3 sequence (P21453 whole entry): as above
T4 sequence (Q99500 whole entry): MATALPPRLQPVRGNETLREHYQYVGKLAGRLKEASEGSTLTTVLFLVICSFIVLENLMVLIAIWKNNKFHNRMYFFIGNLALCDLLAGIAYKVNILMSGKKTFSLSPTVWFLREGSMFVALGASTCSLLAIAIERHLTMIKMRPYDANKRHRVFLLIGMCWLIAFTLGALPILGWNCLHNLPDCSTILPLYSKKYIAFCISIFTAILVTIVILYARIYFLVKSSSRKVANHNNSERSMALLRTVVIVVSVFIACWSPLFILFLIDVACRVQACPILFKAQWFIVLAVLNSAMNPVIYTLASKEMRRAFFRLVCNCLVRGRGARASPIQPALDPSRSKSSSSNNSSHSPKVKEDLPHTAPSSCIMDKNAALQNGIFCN
T5 sequence (Q99500 whole entry): as above

| SMILES | GTPγS S1P3/S1P1 (Method A) [1] | GTPγS S1P3/S1P1 (Method B) [2] | IC50 (human S1P1) [nM] | EC50 [1] [nM] | EC50 [2] [nM] | EC50 [3] [nM] | EC50 [4] [nM] |
| --- | --- | --- | --- | --- | --- | --- | --- |
| CCCc1c(-c2nc(-c3ccc(CN4CC(C(=O)O)C4)cc3)no2)noc1-c1ccccn1 [Example 3, 1-(4-(5-(4-Propyl-5-(pyridin-2-yl)isoxazol-3-yl)-1,2,4-oxadiazol-3-yl)benzyl)azetidine-3-carboxylic acid, 2,2,2-trifluoroacetic acid salt] | 2,600 | 430 | 0.021 | 0.82 | 0.65 | 280 | 2100 |
| CCCc1c(-c2ccccn2)noc1-c1nc(-c2ccc(CN3CC(C(=O)O)C3)cc2)no1 [Example 6, 1-(4-(5-(4-Propyl-3-(pyridin-2-yl)isoxazol-5-yl)-1,2,4-oxadiazol-3-yl)benzyl)-azetidine-3-carboxylic acid, 2,2,2-trifluoroacetic acid salt] | – | 5,200 | 0.019 | – | 0.082 | 430 | – |
| COC(=O)c1c(-c2ccccn2)noc1-c1nc(-c2ccc(CN3CC(C(=O)O)C3)cc2)no1 [Example 7, 1-(4-(5-(4-(Methoxycarbonyl)-3-(pyridin-2-yl)isoxazol-5-yl)-1,2,4-oxadiazol-3-yl)benzyl)azetidine-3-carboxylic acid] | 5,800 | – | 0.53 | 3.3 | – | – | 19000 |
| O=C(O)C1CN(Cc2ccc(-c3noc(-c4cc(-c5ccccn5)no4)n3)cc2)C1 [Example 8] | 5.1 | – | 6.5 | 450 | 68 | – | 2300 |

Results, then the compound that gave them:

| GTPγS S1P3/S1P1 (Method A) [1] | GTPγS S1P3/S1P1 (Method B) [2] | IC50 (human S1P1) [nM] | EC50 [1] [nM] | EC50 [2] [nM] | EC50 [3] [nM] | EC50 [4] [nM] | SMILES |
| --- | --- | --- | --- | --- | --- | --- | --- |
| 1.2 | 78 | – | – | – | – | – | O=C(O)C1CN(Cc2ccc(-c3noc(-c4cc(-c5ccccc5)c(C(F)(F)F)s4)n3)cc2)C1 [Comp. A, 1-(4-(5-(4-Phenyl-5-(trifluoromethyl)thiophen-2-yl)-1,2,4-oxadiazol-3-yl)benzyl)azetidine-3-carboxylic acid, reference compound] |
| – | 13,000 | 0.39 | 4.5 | 0.34 | 4400 | – | O=C(O)C1CN(Cc2ccc(-c3noc(-c4noc(-c5ccccn5)c4C(F)(F)F)n3)cc2)C1 [Example 2, 1-(4-(5-(5-(Pyridin-2-yl)-4-(trifluoromethyl)isoxazol-3-yl)-1,2,4-oxadiazol-3-yl)benzyl)azetidine-3-carboxylic acid] |
| 179 | – | 0.18 | 39 | 1 | – | 7000 | CC(C)c1c(-c2nc(-c3ccc(CN4CC(C(=O)O)C4)cc3)no2)noc1-c1ccccn1 [Example 4, 1-(4-(5-(4-Isopropyl-5-(pyridin-2-yl)isoxazol-3-yl)-1,2,4-oxadiazol-3-yl)benzyl)azetidine-3-carboxylate, 2,2,2-trifluoroacetic acid salt] |
| 513 | – | 0.051 | 3.7 | 0.61 | – | 1900 | CCc1c(-c2nc(-c3ccc(CN4CC(C(=O)O)C4)cc3)no2)noc1-c1ccccn1 [Example 5, 1-(4-(5-(4-Ethyl-5-(pyridin-2-yl)isoxazol-3-yl)-1,2,4-oxadiazol-3-yl)benzyl)-azetidine-3-carboxylic acid, 2,2,2-trifluoroacetic acid salt] |
